Source: PubChem BioAssay AID2060483 (Molecular Pharmacology Branch, DTP, NCI, 2025)

System: K24384-001-R-PDC complex spheroids, viability
Test: Anticancer human tumor K24384-001-R-PDC patient-derived pancreatic adenocarcinoma cell line growth inhibition [GQUAD]
Conditions: for IC50: curve of first compound; for viability, T/C: stronger effect = lower value
Summary of the method: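 Multi-cell-type spheroids of tumor cells with HUVEC and mesenchymal stem cells, treated with drug combinations. Concentrations descend in half-log steps from near clinical Cmax, or from 10 microM where Cmax is unknown; viability read-out.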

[1] = second compound 0.0316 µM, first compound 0.0316 µM
[2] = second compound 0.0316 µM, first compound 0.1 µM
[3] = second compound 0.0316 µM, first compound 0.316 µM
[4] = second compound 0.0316 µM, first compound 1 µM
[5] = second compound 0.0316 µM, first compound 3.16 µM
[6] = second compound 0.0316 µM, first compound 10 µM
[7] = second compound 0.1 µM, first compound 0.0316 µM
[8] = second compound 0.1 µM, first compound 0.1 µM
[9] = second compound 0.1 µM, first compound 0.316 µM
[10] = second compound 0.1 µM, first compound 1 µM
[11] = second compound 0.1 µM, first compound 3.16 µM
[12] = second compound 0.1 µM, first compound 10 µM
[13] = second compound 0.316 µM, first compound 0.0316 µM
[14] = second compound 0.316 µM, first compound 0.1 µM
[15] = second compound 0.316 µM, first compound 0.316 µM
[16] = second compound 0.316 µM, first compound 1 µM
[17] = second compound 0.316 µM, first compound 3.16 µM
[18] = second compound 0.316 µM, first compound 10 µM
[19] = second compound 1 µM, first compound 0.0316 µM
[20] = second compound 1 µM, first compound 0.1 µM
[21] = second compound 1 µM, first compound 0.316 µM
[22] = second compound 1 µM, first compound 1 µM
[23] = second compound 1 µM, first compound 3.16 µM
[24] = second compound 1 µM, first compound 10 µM
[25] = second compound 3.16 µM, first compound 0.0316 µM
[26] = second compound 3.16 µM, first compound 0.1 µM
[27] = second compound 3.16 µM, first compound 0.316 µM
[28] = second compound 3.16 µM, first compound 1 µM
[29] = second compound 3.16 µM, first compound 3.16 µM
[30] = second compound 3.16 µM, first compound 10 µM
[31] = second compound 10 µM, first compound 0.0316 µM
[32] = second compound 10 µM, first compound 0.1 µM
[33] = second compound 10 µM, first compound 0.316 µM
[34] = second compound 10 µM, first compound 1 µM
[35] = second compound 10 µM, first compound 3.16 µM
[36] = second compound 10 µM, first compound 10 µM
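Note: spheroids exposed to compounds for seven days.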

`CC1COCCN1c1cc(C2(S(C)(=N)=O)CC2)nc(-c2ccnc3[nH]ccc23)n1` (stereo unspecified) + Cc1[nH]c2ccc(F)cc2c1-c1nc2c3cccnc3c3ncccc3c2[nH]1 was tested, and the IC50 (second compound 0.0316 µM) was 1610 nM, the IC50 (second compound 0.1 µM) was 1710 nM and the IC50 (second compound 0.316 µM) was 1500 nM. The IC50 (second compound 1 µM) was 1990 nM, the IC50 (second compound 3.16 µM) was 2040 nM and the IC50 (second compound 10 µM) was 1250 nM. It also gave a viability, T/C [1] of 82.5%, a viability, T/C [2] of 94.6% and a viability, T/C [3] of 112%. The viability, T/C [4] was 64.2%, the viability, T/C [5] was 37.2% and the viability, T/C [6] was 22.6%. For the same compound, the viability, T/C [7] was 87.1%, the viability, T/C [8] was 95.7% and the viability, T/C [9] was 107%. The viability, T/C [10] was 66.6%, the viability, T/C [11] was 34.6% and the viability, T/C [12] was 27.5%. The viability, T/C [13] was 81.6%, the viability, T/C [14] was 85.5% and the viability, T/C [15] was 101%. It also gave a viability, T/C [16] of 58.8%, a viability, T/C [17] of 38.5% and a viability, T/C [18] of 29.2%. For the same compound, the viability, T/C [19] was 87.5%, the viability, T/C [20] was 84.1% and the viability, T/C [21] was 87.1%. For the same compound, the viability, T/C [22] was 63.6%, the viability, T/C [23] was 41.5% and the viability, T/C [24] was 31.6%. It also gave a viability, T/C [25] of 71.6%, a viability, T/C [26] of 72.6% and a viability, T/C [27] of 72.9%. For the same compound, the viability, T/C [28] was 61%, the viability, T/C [29] was 43% and the viability, T/C [30] was 26%. The viability, T/C [31] was 56.5%, the viability, T/C [32] was 64.4% and the viability, T/C [33] was 58.5%. It also gave a viability, T/C [34] of 54.3%, a viability, T/C [35] of 32.5% and a viability, T/C [36] of 16.5%.

For `CCCS(=O)(=O)Nc1ccc(F)c(C(=O)c2c[nH]c3ncc(-c4ccc(Cl)cc4)cc23)c1F` + CN(C)c1ccc(Nc2c3ccc(NC(=O)CCN4CCCC4)cc3nc3cc(NC(=O)CCN4CCCC4)ccc23)cc1, the IC50 (second compound 0.0316 µM) was greater than 10000 nM, the IC50 (second compound 0.1 µM) was 9980 nM and the IC50 (second compound 0.316 µM) was greater than 10000 nM. For the same compound, the IC50 (second compound 1 µM) was greater than 10000 nM, the IC50 (second compound 3.16 µM) was 9350 nM and the IC50 (second compound 10 µM) was 7840 nM. It also gave a viability, T/C [1] of 110%, a viability, T/C [2] of 102% and a viability, T/C [3] of 129%. It also gave a viability, T/C [4] of 128%, a viability, T/C [5] of 138% and a viability, T/C [6] of 54%. For the same compound, the viability, T/C [7] was 98.5%, the viability, T/C [8] was 118% and the viability, T/C [9] was 113%. It also gave a viability, T/C [10] of 124%, a viability, T/C [11] of 150% and a viability, T/C [12] of 49.8%. The viability, T/C [13] was 93.5%, the viability, T/C [14] was 114% and the viability, T/C [15] was 124%. For the same compound, the viability, T/C [16] was 125%, the viability, T/C [17] was 144% and the viability, T/C [18] was 52%. The viability, T/C [19] was 102%, the viability, T/C [20] was 105% and the viability, T/C [21] was 117%. For the same compound, the viability, T/C [22] was 131%, the viability, T/C [23] was 154% and the viability, T/C [24] was 53.3%. It also gave a viability, T/C [25] of 92.7%, a viability, T/C [26] of 101% and a viability, T/C [27] of 97.2%. It also gave a viability, T/C [28] of 128%, a viability, T/C [29] of 140% and a viability, T/C [30] of 46%. It also gave a viability, T/C [31] of 84.3%, a viability, T/C [32] of 114% and a viability, T/C [33] of 109%. It also gave a viability, T/C [34] of 149%, a viability, T/C [35] of 139% and a viability, T/C [36] of 31.3%.

`CC1COCCN1c1cc(-c2ccnn2C)c2ccnc(-c3ccn[nH]3)c2n1` (stereo unspecified) + Cc1[nH]c2ccc(F)cc2c1-c1nc2c3cccnc3c3ncccc3c2[nH]1 was tested, and the IC50 (second compound 0.0316 µM) was 215 nM, the IC50 (second compound 0.1 µM) was 242 nM and the IC50 (second compound 0.316 µM) was 219 nM. The IC50 (second compound 1 µM) was 178 nM, the IC50 (second compound 3.16 µM) was 57.6 nM and the IC50 (second compound 10 µM) was 51.1 nM. The viability, T/C [1] was 84.6%, the viability, T/C [2] was 63.7% and the viability, T/C [3] was 45.1%. For the same compound, the viability, T/C [4] was 28.7%, the viability, T/C [5] was 44.8% and the viability, T/C [6] was 31.8%. The viability, T/C [7] was 68.7%, the viability, T/C [8] was 68.9% and the viability, T/C [9] was 44.3%. The viability, T/C [10] was 31.1%, the viability, T/C [11] was 45% and the viability, T/C [12] was 36.5%. The viability, T/C [13] was 71.4%, the viability, T/C [14] was 76.5% and the viability, T/C [15] was 38.7%. For the same compound, the viability, T/C [16] was 33.5%, the viability, T/C [17] was 39.8% and the viability, T/C [18] was 38.2%. It also gave a viability, T/C [19] of 62.1%, a viability, T/C [20] of 64.6% and a viability, T/C [21] of 29.5%. The viability, T/C [22] was 41.5%, the viability, T/C [23] was 39.6% and the viability, T/C [24] was 36.3%. It also gave a viability, T/C [25] of 55.5%, a viability, T/C [26] of 48.1% and a viability, T/C [27] of 31.4%. For the same compound, the viability, T/C [28] was 41%, the viability, T/C [29] was 29.3% and the viability, T/C [30] was 35.7%. For the same compound, the viability, T/C [31] was 57.4%, the viability, T/C [32] was 39.9% and the viability, T/C [33] was 30.3%. The viability, T/C [34] was 31.5%, the viability, T/C [35] was 24.1% and the viability, T/C [36] was 28.9%.
